Measurements from PMC4537050, “A long pentraxin-3-derived pentapeptide for the therapy of FGF8b-driven steroid hormone-regulated cancers” (Oncotarget, 2015).

Key:
[1] = biological target: T1, FGF6 (Homo sapiens, UniProt P10767); experiment: SPR analysis of FGF/ARPCA interaction, FGF6; format: binding; conditions: immobilized FGF6
T1 sequence (P10767 38-208): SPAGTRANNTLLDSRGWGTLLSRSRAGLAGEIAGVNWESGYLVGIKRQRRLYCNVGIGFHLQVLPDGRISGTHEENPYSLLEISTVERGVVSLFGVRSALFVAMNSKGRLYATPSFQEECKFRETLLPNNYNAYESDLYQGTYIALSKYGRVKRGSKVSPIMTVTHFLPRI

[2] = biological target: T2, FGF8b (Homo sapiens, UniProt P55075); experiment: ARPCA-FGF8 interaction by 2D 1H-13C HSQC NMR titration; format: binding; parameters: purchased ASLA (Riga, Latvia); conditions: 190 μM ARPCA, FGF8b:ARPCA 0.5:1 and 1:1, intermediate to fast exchange
T2 sequence (P55075 23-215 isoform P55075-3 limits assumed): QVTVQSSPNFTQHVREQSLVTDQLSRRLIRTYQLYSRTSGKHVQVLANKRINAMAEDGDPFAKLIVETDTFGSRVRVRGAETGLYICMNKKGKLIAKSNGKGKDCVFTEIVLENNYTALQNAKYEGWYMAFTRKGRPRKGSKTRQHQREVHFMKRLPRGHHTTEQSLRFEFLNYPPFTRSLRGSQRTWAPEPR
Procedure: NMR experiments were collected on samples containing 190 μM of ARPCA, dissolved in 50 mM potassium phosphate buffer pH 6.7 (90% H2O/10% D2O), 2.5 mM arginine, 10mM NaCl in the presence of variable concentrations of FGF8 corresponding to 1:0, 1:0.5, and 1:1 ARPCA:FGF8 ratios.
2D 1H-13C HSQC spectra were recorded with a sweep width of 10 ppm and 100 ppm.2k × 128 data points were used in proton and carbon dimensions, respectively. Data, acquired and processed using Topspin (Bruker Biospin), were apodized with a squared sinebell shifted by 90° and polynomial baseline correction. All NMR spectra were recorded at 298 K with a Bruker DMX spectrometer operating at 600 MHz.

[3] = system: FGFR1 phosphorylation and ERK1/2 activation in S115 cells; experiment: Western blot of FGF8b-treated S115 cells; format: cell-based, mouse; conditions: 30 ng/ml FGF8b, 100 μM peptide, 20 minutes
Procedure: S115 cells were treated with FGF8b (30ng/ml) in the presence or absence of ARPCA (100 μM) or ARPVA (100 μM). After 20 minutes of incubation cell samples were washed in cold PBS and homogenized in RIPA buffer containing 1% Triton-X100, 0.2% BriJ, 1 mM sodium orthovanadate and protease inhibitors cocktail. Protein concentrations were determined using the Bradford protein assay (Bio-Rad Laboratories, Milano, Italy). Blotting analysis was performed using anti-FGFR1, anti-phospho FGFR1 and anti-phosphoERK1/2 antibodies (Santa Cruz Biotechnology, Santa Cruz, CA, USA). Equal loading of the lanes was confirmed by immunoblotting with anti–αTubulin (Sigma-Aldrich) antibody.

Substance: Ac-ARPCA-NH2 [ARPCA, Ac-ARPCA-NH2]
- Kd, FGF6 [1]: n.b.
- binding to FGF8b indicated by NMR titration [2]: micromolar range
- FGFR1 phosphorylation in S115 cells treated with FGF8b [3]: inhibits FGFR1 phosphorylation
- MAPK ERK1/2 activation in S115 cells treated with FGF8b [3]: inhibits
